# Measured values taken from patent US8791102B2, “Acetanilide sphingosine-1-phosphate receptor antagonists” (Exelixis, Inc., priority 2008, dated 2014).
# Target: T1, human S1P1 receptors (Homo sapiens, UniProt P21453)
# T1 construct: host or cells: HEK293
# Test: S1P1R antagonist assay (fluorescent membrane potential dye, cAMP readout)
# Format: cell-based
# Settings: HEK293 cells expressing human S1P1 receptors and CNG channel; 500 nM NECA; S1P1R agonist 10 nM; 90 minutes; read-out: EC50 or IC50 value
# T1 sequence (P21453 whole entry): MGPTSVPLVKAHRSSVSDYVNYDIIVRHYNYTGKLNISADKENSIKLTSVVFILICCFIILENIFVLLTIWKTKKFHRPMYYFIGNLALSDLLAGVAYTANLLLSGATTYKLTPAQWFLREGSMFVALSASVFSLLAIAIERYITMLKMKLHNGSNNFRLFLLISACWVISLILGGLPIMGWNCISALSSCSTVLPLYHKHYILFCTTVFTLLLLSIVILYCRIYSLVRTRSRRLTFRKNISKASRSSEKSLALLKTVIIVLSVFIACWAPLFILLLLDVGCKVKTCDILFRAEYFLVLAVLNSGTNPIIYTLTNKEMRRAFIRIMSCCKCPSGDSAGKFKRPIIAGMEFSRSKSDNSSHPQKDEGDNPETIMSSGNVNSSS
row,SMILES,IC50
1,"O=C(Nc1ccc(Oc2ccc(F)cc2)cc1)[C@@H]1C[C@@H](Cc2ccccc2)CN1C(=O)C1CCOC1 (stereo partly drawn) [Compound 36, (2S,4R)-4-benzyl-N-(4-(4-fluorophenoxy)phenyl)-1-(tetrahydrofuran-3-carbonyl)pyrrolidine-2-carboxamide]",≤ 300 nM
2,"O=C(Nc1ccc(Oc2ccc(F)cc2)cc1)[C@@H]1C[C@@H](Cc2ccccc2)CN1C(=O)Cc1ccccc1 [Compound 31, (2S,4R)-4-benzyl-N-(4-(4-fluorophenoxy)phenyl)-1-(2-phenylacetyl)pyrrolidine-2-carboxamide]",≤ 300 nM
3,"O=C(Cc1ccccn1)N[C@@H](COCc1ccccc1)C(=O)Nc1ccc(Oc2ccc(F)cc2)cc1 [Compound 246, (S)-3-(benzyloxy)-N-(4-(4-fluorophenoxy)phenyl)-2-(2-(pyridin-2-yl)acetamido)propanamide]",≤ 300 nM
4,"CC(=O)Nc1nc(C)c(S(=O)(=O)NC(COCc2ccccc2)C(=O)Nc2ccc(Oc3ccccc3)cc2)s1 (stereo not shown) [Compound 305, N-(2-oxo-1-{[(phenylmethyl)oxy]methyl}-2-{[4-(phenyloxy)phenyl]amino}ethyl)-2-acetylamino-4-methylthiazol-5-ylsulfonamide]",≤ 300 nM
